This note sets out measurements from patent publication EP0343830A2, “Ring-substituted 2-amino-1,2,3,4-tetrahydronaphthalenes” (ELI LILLY AND COMPANY, priority 1988, dated 1989).

Counter-ions that a name gives are not always drawn.

For this experiment, the target named is T1, 5HT UPTAKE (Rattus norvegicus, UniProt P31652).
T1 construct: Crude synaptosomal preparations were isolated after differential centrifugation; from tissue; host or cells: rat cerebral cortex, crude synaptosomes
T1 sequence (P31652 whole entry): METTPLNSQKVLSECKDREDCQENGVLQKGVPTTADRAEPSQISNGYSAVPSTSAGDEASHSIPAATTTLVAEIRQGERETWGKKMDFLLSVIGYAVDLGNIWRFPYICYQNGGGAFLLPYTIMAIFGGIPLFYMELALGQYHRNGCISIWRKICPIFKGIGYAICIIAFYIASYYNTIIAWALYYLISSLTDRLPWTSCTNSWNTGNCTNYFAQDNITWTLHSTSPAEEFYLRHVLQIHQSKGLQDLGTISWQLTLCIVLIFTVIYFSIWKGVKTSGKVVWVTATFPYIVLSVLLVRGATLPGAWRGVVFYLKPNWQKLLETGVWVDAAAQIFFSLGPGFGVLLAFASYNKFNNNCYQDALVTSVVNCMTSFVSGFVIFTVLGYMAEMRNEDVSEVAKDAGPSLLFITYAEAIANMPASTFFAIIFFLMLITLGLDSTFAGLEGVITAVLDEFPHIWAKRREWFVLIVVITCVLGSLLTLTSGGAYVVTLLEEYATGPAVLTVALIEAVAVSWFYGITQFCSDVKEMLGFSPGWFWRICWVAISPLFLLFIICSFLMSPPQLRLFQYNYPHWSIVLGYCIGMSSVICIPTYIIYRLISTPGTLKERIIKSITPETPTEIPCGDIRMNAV
Kind of experiment: Inhibition of synaptosomal uptake of 3H-serotonin (3H-5HT) in vitro, rat cerebral cortex synaptosomes. Type of experiment: biochemical, Sprague-Dawley rats. Particulars: concentration needed to inhibit the uptake of 3H-5HT by 50%; rat cortical synaptosomes, 37°C, 5 min, 50 nM 3H-5HT. As to the method: This general procedure is set forth in Wong et al., Drug Development Research 6:397-403 (1985).
Male Sprague-Dawley rats (110-150 g) from Harlan Industries (Cumberland, IN) were fed Purina Chow ad libitum for at least 3 days before being used in the studies. Rats were killed by decaptiation. Whole brains were removed and dissected. Cerebral cortex was homogenized in 9 volumes of a medium containing 0.32 M sucrose and 10 mM glucose. Crude synaptosomal preparations were isolated after differential centrifugation at 1,000 g for 10 min. and 17,000 g for 28 min. The final pellets were suspended in the same medium and kept in ice until use within the same day.
Synaptosomal uptake of ³H-serotonin (³H-5-hydroxytryptamine, ³H-5HT) was determined as follows: Cortical synaptosomes (equivalent to 1 mg of protein) were incubated at 37°C for 5 min in 1 ml of Krebs-bicarbonate medium containing also 10 mM glucose, […], 1 mM ascorbic acid, 0.17 mM EDTA and 50 nM ³H-5HT. The reaction mixture was immediately diluted with 2 ml of ice-chilled Krebs-bicarbonate buffer and filtered under vacuum with a cell harvester (Brandel, Gaithersburg, MD). Filters were rinsed twice with approximately 5 ml of ice-chilled 0.9% saline and were transferred to a counting vial containing 10 ml of scintillation fluid (PCS, Amersham, Arlington Heights, IL). Radioactivity was measured by a liquid scintillation spectrophotometer. Accumulation of ³H-5HT at 4°C represented the background and was subtracted from all samples.
The results of the evaluation of various compounds of the present invention are set forth below in Table I. In Table I, the first column provides the Example Number of the compound evaluated; the next 7 columns identify the structure of the compound evaluated when taken with the formula set forth in the heading; the next-succeeding column identifies the salt form of the compound evaluated; and the final column provides the amount of the test compound expressed in nanomolar concentration needed to inhibit the uptake of ³H-5HT by 50%, and is indicated in Table I as IC₅₀. Numbers in parentheses, if any, represent percent inhibition at 1000 nM.
With `CN1CCN(C2CCc3cccc(Br)c3C2)CC1` (stereo not drawn) [Example 9, 2-(N-Methylpiperazinyl)-8-bromo-1,2,3,4-tetrahydronaphthalene dimaleate], the half-maximal inhibitory concentration (IC50) (commonly the concentration needed to halve the response being measured) worked out at 90 nM.

`Cc1ccc(Br)c2c1CC(N1CCN(C)CC1)CC2` (stereo not drawn) [Example 17, 2-(N-methylpiperazinyl)-5-bromo-8-methyl-1,2,3,4-tetrahydronaphthalene dihydrochloride] displayed an IC50 of 17 nM.

On to `COc1ccc(OC)c2c1CCC(N1CCN(C)CC1)C2` (stereo not drawn) [Example 10, 2-(N-methylpiperazinyl)-5,8-dimethoxy-1,2,3,4-tetrahydronaphthalene dihydrochloride], for which the midpoint of inhibition, the IC50, lay at 100 nM.

On to `COc1ccc(Cl)c2c1CC(N1CCN(C)CC1)CC2` (stereo not drawn) [Example 21, 2-(N-methylpiperazinyl)-5-chloro-8-methoxy-1,2,3,4-tetrahydronaphthalene dihydrochloride], for which the IC50 worked out at 16 nM.

`COc1ccc(C#N)c2c1CC(N1CCN(C)CC1)CC2` (stereo not drawn) [Example 24, 2-(N-methylpiperazinyl)-5-cyano-8-methoxy-1,2,3,4-tetrahydronaphthalene dihydrochloride] showed an IC50 of 12 nM.

In turn, `COc1ccc(Br)c2c1C(C)C(N1CCNCC1)CC2` (single isomer, unassigned) [Example 19, 1-Methyl-2-piperazinyl-5-bromo-8-methoxy-1,2,3,4-tetrahydronaphthalene dihydrochloride] yielded an IC50 of 70 nM.

`Cc1ccc(C)c2c1CCC(N1CCN(C)CC1)C2` (stereo not drawn) [Example 8, 2-(N-Methylpiperazinyl)-5,8-dimethyl-1,2,3,4-tetrahydronaphthalene dimaleate] yielded an IC50 of 140 nM.

Turning to `COc1ccc2c(c1)CCC(N1CCNCC1)C2` (stereo not drawn) [Example 29, 2-Piperazinyl-6-methoxy-1,2,3,4-tetrahydronaphthalene dihydrochloride], the IC50 was 750 nM.

With `CC1c2ccccc2CCC1N1CCNCC1` (stereo not drawn) [Example 34, 1-Methyl-2-piperazinyl-1,2,3,4-tetrahydronaphthalene dihydrochloride], the IC50 worked out at 59 nM.

`CSc1cccc2c1CC(N1CCN(C)CC1)CC2` (stereo not drawn) [Example 18, 2-(N-methylpiperazinyl)-8-methylthio-1,2,3,4-tetrahydronaphthalene dimaleate] registered an IC50 of 40 nM.

`Fc1ccc2c(c1)CCC(N1CCNCC1)C2` (stereo not drawn) [Example 27, 2-Piperazinyl-6-fluoro-1,2,3,4-tetrahydronaphthalene dihydrochloride] returned an IC50 of 340 nM.

With `Cc1cccc2c1CC(N1CCN(C)CC1)CC2` (stereo not drawn) [Example 7, 2-(N-Methylpiperazinyl)-8-methyl-1,2,3,4-tetrahydronaphthalene dihydrochloride], the concentration for half-maximal inhibition (IC50) was determined as 87 nM.

`CC1c2c(Cl)cccc2CCC1N1CCNCC1` (stereo not drawn) [Example 12, 1-Methyl-2-piperazinyl-8-chloro-1,2,3,4-tetrahydronaphthalene dihydrochloride] displayed an IC50 of 270 nM.

Turning to `COc1ccc(I)c2c1CC(N1CCN(C)CC1)CC2` (stereo not drawn) [Example 22, 2-(N-methylpiperazinyl)-5-iodo-8-methoxy-1,2,3,4-tetrahydronaphthalene dihydrochloride], the IC50 was found to be 23 nM.

In the case of `COc1cccc2c1CC(N1CCNCC1)CC2` (stereo not drawn) [Example 2, 2-Piperazinyl-8-methoxy-1,2,3,4-tetrahydronaphthalene dihydrochloride], the IC50 came out at 90 nM.

The molecule `CN1CCN(C2CCc3cc(Br)ccc3C2)CC1` (stereo not drawn) [Example 31, 2-(N-Methylpiperazinyl)-6-bromo-1,2,3,4-tetrahydronaphthalene dihydrochloride] gave an IC50 of 520 nM.

As to `CC1c2ccc(Br)cc2CCC1N1CCNCC1` (stereo not drawn) [Example 40, 1-Methyl-2-piperazinyl-6-bromo-1,2,3,4-tetrahydronaphthalene dihydrochloride], the half-inhibitory concentration (IC50) was 34 nM.

For `CN1CCN(C2CCc3cccc(O)c3C2)CC1` (stereo not drawn) [Example 14, 2-(N-Methylpiperazinyl)-8-hydroxy-1,2,3,4-tetrahydronaphthalene dihydrobromide], the half-maximal inhibitory concentration (IC50) was determined as 50 nM.

`C[C@@H]1c2ccc(Cl)cc2CC[C@@H]1N1CCNCC1` (racemic) [Example 33, cis-1-Methyl-2-piperazinyl-6-chloro-1,2,3,4-tetrahydronaphthalene dihydrochloride] showed an IC50 of 12 nM.

The molecule `Clc1ccc2c(c1)CCC(N1CCNCC1)C2` (stereo not drawn) [Example 25, 2-Piperazinyl-6-chloro-1,2,3,4-tetrahydronaphthalene dihydrochloride] had an IC50 of 100 nM.

On to `Oc1ccc2c(c1)CCC(N1CCNCC1)C2` (stereo not drawn) [Example 37, 2-Piperazinyl-6-hydroxy-1,2,3,4-tetrahydronaphthalene dihydrobromide], for which half-maximal inhibition (IC50) was put at 1000 nM.

Consider `CSc1ccc2c(c1)CCC(N1CCN(C)CC1)C2` (stereo not drawn) [Example 39, 2-(N-Methylpiperizinyl)-6-methylthio-1,2,3,4-tetrahydronaphthalene dihydrochloride], for which it took 434 nM to reach half-maximal inhibition (IC50).

On to `Cc1ccc2c(c1)CCC(N1CCNCC1)C2` (stereo not drawn) [Example 28, 2-Piperazinyl-6-methyl-1,2,3,4-tetrahydronaphthalene dihydrochloride], for which 210 nM corresponded to half-maximal inhibition (IC50).

`Clc1ccc2c(c1)CCC(N1CCCNCC1)C2` (stereo not drawn) [Example 36, 2-Homopiperazinyl-6-chloro-1,2,3,4-tetrahydronaphthalene dihydrochloride]: the IC50 was 240 nM.

`C[C@@H]1c2ccc(Cl)cc2CC[C@@H]1N1CCNCC1` (single isomer, unassigned; (+)) [Example 33a, (+)cis-1-Methyl-2-piperazinyl-6-chloro-1,2,3,4-tetrahydronaphthalene dihydrochloride dihydrate]: the IC50 is 84 nM.

As to `COc1cccc2c1CC(N1CCN(C)CC1)CC2` (stereo not drawn) [Example 1, 2-(Methylpiperazinyl)-8-methoxy-1,2,3,4-tetrahydronaphthalene dihydrochloride], the IC50 amounted to 57 nM.

`COc1ccc(C=O)c2c1CC(N1CCN(C)CC1)CC2` (stereo not drawn) [Example 23, 2-(N-methylpiperazinyl)-5-formyl-8-methoxy-1,2,3,4-tetrahydronaphthalene dihydrochloride hydrate] had an IC50 of 10 nM.

`Clc1cc2c(cc1Cl)CC(N1CCNCC1)CC2` (stereo not drawn) [Example 30, 2-Piperazinyl-6,7-dichloro-1,2,3,4-tetrahydronaphthalene dihydrochloride] had an IC50 of 115 nM.

In the case of `Clc1cccc2c1CC(N1CCCNCC1)CC2` (stereo not drawn) [Example 5, 2-(Homopiperazinyl)-8-chloro-1,2,3,4-tetrahydronaphthalene dimaleate], 260 nM corresponded to half-maximal inhibition (IC50).

With `Clc1cccc2c1CC(N1CCNCC1)CC2` (stereo not drawn) [Example 3, 2-Piperazinyl-8-chloro-1,2,3,4-tetrahydronaphthalene dimaleate], half-maximal inhibition (IC50) required 83 nM.

As to `CC1c2ccccc2CCC1N1CCN(C)CC1` (stereo not drawn) [Example 35, 1-Methyl-2-(N-methylpiperazinyl-1,2,3,4-tetrahydronaphthalenedihydrochloride], the IC50 was determined as 490 nM.

Take `COc1ccc(C(F)F)c2c1CC(N1CCN(C)CC1)CC2` (stereo not drawn) [Example 38, 2-(N-Methylpiperazinyl)-5-difluoromethyl-8-methoxy-1,2,3,4-tetrahydronaphthalene dimaleate]: the IC50 turned out to be 23 nM.

The molecule `CN1CCN(C2CCc3cccc(Cl)c3C2)CC1` (stereo not drawn) [Example 4, 2-(N-methylpiperazinyl)-8-chloro-1,2,3,4-tetrahydronaphthalene dimaleate] had an IC50 of 35 nM.

Regarding `CC1c2c(Cl)cccc2CCC1N1CCN(C)CC1` (stereo not drawn) [Example 11, 1-Methyl-2-(N-methylpiperazinyl)-8-chloro-1,2,3,4-tetrahydronaphthalene dimaleate], the IC50 worked out at 650 nM.

In turn, `COc1ccc(Br)c2c1CC(N1CCNCC1)CC2` (stereo not drawn) [Example 16, 2-Piperazinyl-5-bromo-8-methoxy-1,2,3,4-tetrahydronaphthalene dihydrochloride] showed an IC50 of 3.7 nM.

In turn, `CN1CCN(C2CCc3cccc(F)c3C2)CC1` (stereo not drawn) [Example 6, 2-(N-methylpiperazinyl)-8-fluoro-1,2,3,4-tetrahydronaphthalene dimaleate] registered an IC50 of 180 nM.

The molecule `COc1ccc(Br)c2c1CC(N1CCN(C)CC1)CC2` (stereo not drawn) [Example 15, 2-(N-Methylpiperazinyl)-5-bromo-8-methoxy-1,2,3,4-tetrahydronaphthalene dihydrochloride] yielded an IC50 of 12 nM.

Molecule `CN1CCN(C2CCc3cc(Cl)ccc3C2)CC1` (stereo not drawn) [Example 32, 2-(N-Methylpiperazinyl)-6-chloro-1,2,3,4-tetrahydronaphthalene dihydrochloride] showed an IC50 of 450 nM.

Molecule `Brc1ccc2c(c1)CCC(N1CCNCC1)C2` (stereo not drawn) [Example 26, 2-Piperazinyl-6-bromo-1,2,3,4-tetrahydronaphthalene dihydrochloride] yielded an IC50 of 350 nM.
